Source: patent US20220251084A1, “PROGRANULIN MODULATORS AND METHODS OF USING THE SAME” (ARKUDA THERAPEUTICS, priority 2019, published 2022)
Counter-ions that a name gives are not always drawn.

Test system: progranulin (PGRN) secretion, BV-2 cells
Assay: PGRN assay: progranulin induction cellular assay (ELISA of secreted mouse PGRN)
Assay type: cell-based
Conditions: not given
Method: Cellular Assays: To measure the efficacy of compounds, a progranulin induction cellular assay in mouse primary microglia (pMG), primary cortical neurons, and BV-2 cell lines is used. BV-2 cells are split the day before plating into a 96 well plate format at approximately 80%. Cells should be plated the day before and allowed for 1 hour attachment period and for 16 hour incubation. […] Standard ELISA kits to measure PGRN are available from vendors such as Adipogen, R&D, and Biovendor.

With O=C(O[C@@H]1CN2CCC1CC2)N1CCn2ccnc2C1c1ccc(F)cc1 (stereo partly drawn) [Compound 2123, (S)-quinuclidin-3-yl 8-(4-fluorophenyl)-5,6-dihydroimidazo[1,2-a]pyrazine-7(8H)-carboxylate] the EC50 was > 10000 nM.

Same assay, conditions: Mus musculus, BV-2

Compared with C#CCOc1ccc2c(c1)CCN(C(=O)O[C@@H]1CN3CCC1CC3)[C@H]2c1ccc(F)cc1 [Compound 2082], CS(=O)(=O)c1ccc2c(c1)CCN(C(=O)O[C@@H]1CN3CCC1CC3)[C@@H]2c1ccc(F)cc1 [Compound 2026] is higher in EC50: 7460 nM for the first, > 10000 nM for the second. The first is the more potent here.

Compared with O=C(OCC12CCN(CC1)CC2)N1CCc2ccccc2[C@@H]1c1ccc(F)cc1 [Compound 2001], COC(=O)c1ccc2c(c1)CCN(C(=O)O[C@@H]1CN3CCC1CC3)[C@H]2c1ccc(F)cc1 [Compound 2086] is higher in EC50: 170 nM for the first, > 10000 nM for the second. The first is the more potent here.

Same assay, conditions: Mus musculus, BV-2, PGRN assay, Table C; secreted mouse PGRN in cell culture medium, ELISA

Compared with CN1CCC(COC(=O)N2CCc3ccccc3[C@@H]2c2cccc(F)c2F)CC1 [Compound 2134], CN1CCC(OC(=O)N2CCc3ccccc3[C@@H]2c2ccc(F)cc2)CC1 [Compound 2020] is lower in EC50: > 10000 nM for the first, 230 nM for the second.

First: COc1ccc(COc2ccc([C@@H]3c4ccccc4CCN3C(=O)OCC34CCN(CC3)CC4)cc2)cc1 [Compound 2137]
Second: COc1ncc(COc2ccc([C@@H]3c4ccccc4CCN3C(=O)OCC34CCN(CC3)CC4)cc2)cn1 [Compound 2146]
The EC50 of the first is higher: > 3160 nM for the first, 1610 nM for the second.

First: O=S(=O)(N[C@@H]1CN2CCC1CC2)N1CCc2ccccc2[C@@H]1c1ccc(F)cc1 [Compound 2010]
Second: O=C([C@H](O)[C@@H]1CN2CCC1CC2)N1CCc2ccccc2[C@@H]1c1ccc(F)cc1 (stereo in doubt) [Compound 2075, 1-((S)-1-(4-fluorophenyl)-3,4-dihydroisoquinolin-2(1H)-yl)-2-hydroxy-2-(quinuclidin-3-yl)ethanone]
The EC50 of the first is higher: > 10000 nM for the first, 895 nM for the second.

CN1C[C@@H]2[C@@H](COC(=O)N3CCc4ccccc4[C@@H]3c3ccc(F)cc3)[C@@H]2C1 [Compound 2023] and CN1CCO[C@H](COC(=O)N2CCc3ccccc3[C@@H]2c2ccc(F)cc2)C1 [Compound 2004] are within 1.5-fold of each other in EC50: 1180 nM for the first, 1050 nM for the second.

CS(=O)(=O)c1ccc2c(c1)[C@H](c1ccc(F)cc1)N(C(=O)N[C@@H]1CN3CCC1CC3)CC2 [Compound 2056] and COC(=O)c1ccc2c(c1)CCN(C(=O)N[C@@H]1CN3CCC1CC3)[C@@H]2c1ccc(F)cc1 [Compound 2089] cannot be ordered by EC50: > 10000 nM for the first, > 10000 nM for the second.

Going from CN1CCN(C(=O)CC(=O)N2CCc3ccccc3[C@@H]2c2ccc(F)cc2)CC1 [Compound 2189, (S)-1-(1-(4-fluorophenyl)-3,4-dihydroisoquinolin-2(1H)-yl)-3-(4-methylpiperazin-1-yl) propane-1,3-dione] to O=C(CCC12CCN(CC1)CC2)N1CCc2ccccc2[C@@H]1c1ccc(F)cc1 [Compound 2037], the EC50 rises from 3320 nM to > 8090 nM. The first is the more potent here.

Going from O=C(OCC12CCN(CC1)CC2)N1CCc2ccccc2[C@H]1c1ccc(OCc2cncnc2)cc1 [Compound 2150] to O=C(OCC12CCN(CC1)CC2)N1CCc2ccccc2[C@H]1c1ccc(OCc2ncccn2)cc1 [Compound 2156], the EC50 falls from 9460 nM to 713 nM (13-fold). The second is the more potent here.

First: CNC(=O)c1ccc2c(c1)CCN(C(=O)NCC13CCN(CC1)CC3)[C@H]2c1ccc(F)cc1 [Compound 2070]
Second: CNC(=O)c1ccc2c(c1)CCN(C(=O)OCC13CCN(CC1)CC3)[C@H]2c1ccc(F)cc1 [Compound 2080]
The EC50 of the first is lower: 3620 nM for the first, > 10000 nM for the second.

Going from O=C1C[C@@H](COC(=O)N2CCc3ccccc3[C@@H]2c2ccc(F)cc2)CCN1 (single isomer, unassigned) [Compound 2186, (1 S)-(2-oxopiperidin-4-yl)methyl 1-(4-fluorophenyl)-3,4-dihydroisoquinoline-2(1H)-carboxylate] to O=C(OCC1CCNCC1)N1CCc2ccccc2[C@@H]1c1ccc(F)cc1 [Compound 2170], the EC50 falls from > 10000 nM to 1590 nM. The second is the more potent here.

Compared with CN1CC2OCC(OC(=O)N3CCc4ccccc4[C@@H]3c3ccc(F)cc3)C2C1 (single isomer, unassigned) [Compound 2076], CN1CCO[C@@H](COC(=O)N2CCc3ccccc3[C@@H]2c2ccc(F)cc2)C1 [Compound 2005] is lower in EC50: > 10000 nM for the first, 587 nM for the second.

Going from O=S(=O)(CCN1CCc2ccccc2[C@@H]1c1ccc(F)cc1)C12CCN(CC1)CC2 [Compound 2131, (S)-4-((2-(1-(4-fluorophenyl)-3,4-dihydroisoquinolin-2(1H)-yl)ethyl)sulfonyl)quinuclidine] to CO[C@H](CC12CCN(CC1)CC2)C(=O)N1CCc2ccccc2[C@@H]1c1ccc(F)cc1 [Compound 2028], the EC50 rises from 4190 nM to > 10000 nM.

Going from O=C(C[C@H]1CCCNC1)N1CCc2ccccc2[C@@H]1c1ccc(F)cc1 [Compound 2187] to O=C(O[C@H]1CCNC1)N1CCc2ccccc2[C@@H]1c1ccc(F)cc1 [Compound 2180, (1S)—((S)-pyrrolidin-3-yl)-1-(4-fluorophenyl)-3,4-dihydroisoquinoline-2(1H)-carboxylate], the EC50 falls from 400 nM to 83 nM (4.8-fold).

C#CCOc1ccc2c(c1)CCN(C(=O)N[C@@H]1CN3CCC1CC3)[C@H]2c1ccc(F)cc1 [Compound 2063] and O=C(N[C@H]1CCN2CCC[C@@H]12)N1CCc2ccccc2[C@@H]1c1ccc(F)cc1 [Compound 2051] cannot be ordered by EC50: > 10000 nM for the first, > 10000 nM for the second.

COC(=O)c1ccc2c(c1)CCN(C(=O)OCC13CCN(CC1)CC3)[C@H]2c1ccc(F)cc1 [Compound 2072] and O=C(OCC12CCN(CC1)CC2)N1CCc2ccccc2[C@@H]1c1ccc(F)c(F)c1 [Compound 2110] are within 1.5-fold of each other in EC50: 8080 nM for the first, 7820 nM for the second.

Same assay, conditions: Mus musculus, BV-2, PGRN assay, Table D; secreted mouse PGRN in cell culture medium, ELISA

N[C@@H]1CCN(C(=O)N2CCc3ccccc3[C@@H]2c2ccc(F)cc2)C1 [Compound 2287] and NC[C@H]1CN(C(=O)N2CCc3ccccc3[C@@H]2c2ccc(F)cc2)CCO1 [Compound 2303] are within 1.5-fold of each other in EC50: 351 nM for the first, 329 nM for the second.

Going from CNC[C@H]1CN(C(=O)N2CCc3ccccc3[C@@H]2c2ccc(F)cc2)CCO1 [Compound 2307] to CN1CC[C@@H](OC(=O)N2CCc3ccccc3[C@@H]2c2ccc(F)cc2)C1 [Compound 2250, (R)-1-methylpyrrolidin-3-yl (S)-1-(4-fluorophenyl)-3,4-dihydroisoquinoline-2(1H)-carboxylate hydrochloride], the EC50 falls from 483 nM to 100 nM (4.8-fold).

First: CN1C[C@@H](NC(=O)N2CCc3ccccc3[C@H]2c2ccc(F)cc2)C2(CC2)C1 (single isomer, unassigned) [Compound 2318]
Second: CN1C[C@@H](NC(=O)N2CCc3ccccc3[C@@H]2c2ccc(F)cc2)C(F)(F)C1 [Compound 2293, (S)—N—((R)-4,4-difluoro-1-methylpyrrolidin-3-yl)-1-(4-fluorophenyl)-3,4-dihydroisoquinoline-2(1H)-carboxamide]
The EC50 of the first is lower: 3350 nM for the first, > 10000 nM for the second.

First: O=C(NC1(C2CCNCC2)CC1)N1CCc2ccccc2[C@@H]1c1ccc(F)cc1 [Compound 2208]
Second: O=C(N[C@@H]1CCNC1)N1CCc2ccccc2[C@@H]1c1ccc(F)cc1 [Compound 2223]
The EC50 of the first is 4.6-fold higher: 7220 nM for the first, 1580 nM for the second.

Going from O=C(N1CCN2CCC1CC2)N1CCc2ccccc2[C@@H]1c1ccc(F)cc1 [Compound 2252] to CN1CCC(OC2(C(=O)N3CCc4ccccc4[C@@H]3c3ccc(F)cc3)CC2)CC1 [Compound 2247], the EC50 rises from 120 nM to > 10000 nM.

O=C(O[C@@H]1CNCC12CC2)N1CCc2ccccc2[C@@H]1c1ccc(F)cc1 (stereo in doubt) [Compound 2310, 5-azaspiro[2.4]heptan-7-yl-(1 S)-1-(4-fluorophenyl)-3,4-dihydroisoquinoline-2(1H)-carboxylate] and CC1(C)CNC[C@@H]1OC(=O)N1CCc2ccccc2[C@@H]1c1ccc(F)cc1 [Compound 2291] are within 1.5-fold of each other in EC50: 501 nM for the first, 591 nM for the second.

First: CN1CC[C@@H](N(C)C(=O)N2CCc3ccccc3[C@@H]2c2ccc(F)cc2)C1 [Compound 2265]
Second: CN(C(=O)N1CCc2ccccc2[C@@H]1c1ccc(F)cc1)[C@H]1CNCC1(F)F [Compound 2297, (S)—N—((S)-4,4-difluoropyrrolidin-3-yl)-1-(4-fluorophenyl)-N-methyl-3,4-dihydroisoquinoline-2(1H)-carboxamide]
The EC50 of the first is lower: 286 nM for the first, > 10000 nM for the second.

Going from O=C(O[C@@H]1CCNC1)N1CCc2ccccc2[C@H]1c1ccc(F)cc1 [Compound 2266, (R)-pyrrolidin-3-yl (R)-1-(4-fluorophenyl)-3,4-dihydroisoquinoline-2(1H)-carboxylate] to O=C(O[C@@H]1CNC[C@@H]1F)N1CCc2ccccc2[C@@H]1c1ccc(F)cc1 [Compound 2363], the EC50 falls from 255 nM to 104 nM (2.5-fold).

Compared with O=C(O[C@H]1CNCC1(F)F)N1CCc2ccccc2[C@@H]1c1ccc(F)cc1 [Compound 2241], CN1C[C@H](NC(=O)N2CCc3ccccc3[C@@H]2c2ccc(F)cc2)C(F)(F)C1 [Compound 2294, (S)—N—((S)-4,4-difluoro-1-methylpyrrolidin-3-yl)-1-(4-fluorophenyl)-3,4-dihydroisoquinoline-2(1H)-carboxamide] is higher in EC50: 8790 nM for the first, > 10000 nM for the second. The first is the more potent here.

First: CN1[C@H]2CC[C@@H]1[C@@H](NC(=O)N1CCc3ccccc3[C@@H]1c1ccc(F)cc1)C2 [Compound 2226]
Second: O=C1N[C@H](CNC(=O)N2CCc3ccccc3[C@@H]2c2ccc(F)cc2)CO1 [Compound 2259, (S)-1-(4-fluorophenyl)-N—(((R)-2-oxooxazolidin-4-yl)methyl)-3,4-dihydroisoquinoline-2(1H)-carboxamide]
The EC50 of the first is lower: 2680 nM for the first, > 10000 nM for the second.

Same assay, conditions: PGRN assay, Table C; secreted mouse PGRN in cell culture medium, ELISA

In the case of O=C(OC1CCNCC1)N1CCc2ccccc2[C@@H]1c1ccc(F)cc1 [Compound 2161], the EC50 is reported as > 10000 nM.

Same assay, conditions: PGRN assay, Table D; secreted mouse PGRN in cell culture medium, ELISA

With CN(C(=O)N1CCc2ccccc2[C@H]1c1ccc(F)cc1)[C@H]1CCNC1 [Compound 2254] the EC50 was 2910 nM.
For CN(C(=O)N1CCc2ccccc2[C@H]1c1ccc(F)cc1)[C@H]1CCNC1 (single isomer, unassigned) [Compound 2249], the EC50 was > 10000 nM.
